Reference: patent publication US11472758B2, “Methods for obtaining compounds from a plant or fungus material, respective compositions, and uses thereof” (Real Isolates, LLC, priority 2020, dated 2022)

Columns and labels:
[1] = tested on: volunteer with severe Crohn's disease; test: Human trial of HCD or MCD for Crohn's disease; type: in vivo
Source text: A volunteer with severe Crohn's disease and who has had over 50 hospital emergency visits since diagnosis in 2015. Treatment with multiple pharmaceutical agents were unsuccessful. They stopped using all pharmaceutical agents in 2018. In August 2020, they began using HCD and MCD. They were able to completely stop a Crohn's disease flare in November 2020 using two consecutive doses of MCD.

[2] = tested on: volunteer with a developmental disorder; test: Human trial of HCD or MCD for autism spectrum/schizophrenia spectrum disorder; type: in vivo
Source text: An assigned person at birth nonbinary volunteer with a history of a developmental disorder whose symptoms span both Autism Spectrum Disorder and Schizophrenia Spectrum Disorder. They stopped taking all psychopharmaceutical agents in 2010 after beginning to use medical Cannabis daily. Outside of 3 relapses due to over 14+ days without Cannabis, they have had no issues managing their symptoms since. Due to decreased symptoms, they are highly functional, fully independent, and no longer meet criteria for their previous diagnoses. In August 2020, they began using the HCD and MCD. They have not missed a single dose of HCD in 5 months; it is their longest span of completely continuous compliance.

[3] = tested on: volunteer with severe, chronic migraines; test: Human trial of HCD or MCD for chronic migraine; type: in vivo
[4] = target: T1, CB1R (Homo sapiens, UniProt P21554); details: known; cited from earlier work
T1 sequence (P21554 whole entry): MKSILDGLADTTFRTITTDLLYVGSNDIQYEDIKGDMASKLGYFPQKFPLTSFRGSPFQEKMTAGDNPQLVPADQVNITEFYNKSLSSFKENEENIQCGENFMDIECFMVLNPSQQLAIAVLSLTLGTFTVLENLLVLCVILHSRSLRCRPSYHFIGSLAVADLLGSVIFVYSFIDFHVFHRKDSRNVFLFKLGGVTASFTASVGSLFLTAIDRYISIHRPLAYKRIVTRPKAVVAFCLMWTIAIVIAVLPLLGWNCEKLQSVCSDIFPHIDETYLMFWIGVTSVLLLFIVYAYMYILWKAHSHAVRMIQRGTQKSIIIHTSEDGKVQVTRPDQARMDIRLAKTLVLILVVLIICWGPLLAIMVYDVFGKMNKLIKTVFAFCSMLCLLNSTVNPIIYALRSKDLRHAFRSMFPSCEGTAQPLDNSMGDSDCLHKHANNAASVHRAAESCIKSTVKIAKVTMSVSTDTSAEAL

[5] = tested on: volunteer with HNPP; test: Human trial of HCD or MCD for hereditary neuropathy with liability to pressure palsy (HNPP); type: in vivo
Procedure: A volunteer has a rare genetic disorder, HNPP, resulting in neuropathic pain, muscle weakness, numbness, and loss of fine motor skills. The volunteer previously needed high doses (more than 5 g/day) of medical Cannabis to receive beneficial effects, but reduced overall intake when they began taking HCD and MCD. Their current dose schedule is 15-30 mg of HCD per day (˜7 mg-15 mg CBD) and MCD as needed. They are not taking any other medication.

[6] = target: T2, CB2R (Homo sapiens, UniProt P34972); details: known; cited from earlier work
T2 sequence (P34972 whole entry): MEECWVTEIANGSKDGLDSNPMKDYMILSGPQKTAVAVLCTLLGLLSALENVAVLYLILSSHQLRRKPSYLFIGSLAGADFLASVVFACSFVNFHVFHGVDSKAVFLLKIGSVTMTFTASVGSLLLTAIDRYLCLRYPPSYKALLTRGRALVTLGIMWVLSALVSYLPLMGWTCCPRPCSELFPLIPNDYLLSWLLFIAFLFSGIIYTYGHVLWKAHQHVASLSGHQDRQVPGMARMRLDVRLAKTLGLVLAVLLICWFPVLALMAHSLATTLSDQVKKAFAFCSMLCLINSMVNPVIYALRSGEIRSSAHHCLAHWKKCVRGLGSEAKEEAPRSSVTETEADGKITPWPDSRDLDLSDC

[7] = tested on: mice; details: cited from earlier work
[8] = has been shown; cited from earlier work
[9] = tested on: CB1R; details: performed similarly to THC, but at a lower potency; cited from earlier work
[10] = tested on: 15-lipoxygenase (15-LOX); details: has been shown; cited from earlier work
[11] = target: T2, CB2R; parameters: host or cells: brain synaptosomal samples; COS-7 over-expression; details: brain synaptosomal samples; COS-7 over-expression model; cited from earlier work
[12] = target: T1, CB1R; parameters: host or cells: brain synaptosomal samples; COS-7 over-expression; details: brain synaptosomal samples; COS-7 over-expression model; cited from earlier work
[13] = smoking/inhalation at 575-600° F., 7 mg CBD isolate
[14] = smoking/inhalation at 575-600° F., 25 mg CBD isolate

Compound: C=C(C)[C@@H]1CCC(C)=C[C@H]1c1c(O)cc(CCCCC)cc1O [CBD, cannabidiol]
- Oral dose needed to achieve results similar to 15 mg HCD ([1]; commercially available CBD isolate, two or more consecutive days): over 50 mg
- Time at which effects began to wear off [1, 13]: 45 min
- Time at which no noticeable effects remained [1, 13]: 60 min
- Time of decreased pain, stress, and anxiety [1, 13]: 15 min
- After effect observed the next day ([2]; 400-600 mg commercially available CBD isolate): “hangover”
- Negative side effects ([2]; doses of 50 mg/day of CBD): forgetfulness/brain fog, apathy, decreased endurance, decreased strength, interrupted sleep routine
- Dose used to abort panic attacks and/or break perseverative loops ([2]; oral, same efficacy): 400 to 600 mg
- Potency compared to orally ingested hemp Cannabis distillate (times less potent) ([2]; orally ingested, Example 20): at least 10 times
- Effect on migraines ([3]; commercial CBD isolate 50 mg/day titrated up to 250 mg/day, after two months): marked decrease in the number and severity of migraines
- Oral dose needed to achieve results similar to 15 mg HCD ([3]; commercially available CBD isolate, anxiety, migraine threshold, migraine severity): over 200 mg
- Activity at CB1R [4]: neutral antagonist activity at nanomolar concentrations
- Effect after oral administration ([5]; oral, 15-30 mg HCD or same dose of commercially available CBD isolate): no noticeable effect
- Time at which effects began to wear off [5, 14]: 45 min
- Time at which no noticeable effects remained [5, 14]: 60 min
- Time at which pain relief began [5, 14]: 10 min
- Activity at CB2R [6]: neutral antagonist activity at nanomolar concentrations

Compound: CCCCCc1cc(O)c2c(c1)OC(C)(C)c1ccc(C)cc1-2 [CBN, cannabinol]
- Pentobarbital-induced sleeping time [7]: double

Compound: CCCCCc1cc(O)c2c(c1)OC(C)(C)[C@@H]1CCC(C)=C[C@@H]21 [THC, Δ9-tetrahydrocannabinol]
- Activity at CB2R [6]: partial agonist activity at nanomolar concentrations

Compound: C=C1CC[C@@H]2[C@@H](C1)c1c(O)cc(CCCCC)cc1OC2(C)C [exo-tetrahydrocannabinol]
- Antibacterial activity [8]: potent antibacterial activity
- Interaction with CB1R [4]: interact with CB1R
- Activity in drug discrimination trials [9]: partial agonist activity

Compound: C=C(C)[C@@H]1CCC(C)=C[C@H]1c1c(O)cc(CCCCC)cc1OC [omCBD, o-methylcannabidiol]
- 15-LOX inhibition [10]: selective and potent

Compound: CCCCCc1cc(OC)c2c(c1)OC(C)(C)c1ccc(C)cc1-2 [omCBN, o-methylcannabinol]
- Potency at CB2 receptor relative to CBN [11]: vastly increase its potency
- Potency at CB1 receptor relative to CBN [12]: vastly increase its potency

Compound: CCCCCOc1cc(CCCCC)cc2c1-c1cc(C)ccc1C(C)(C)O2 [opeCBN, o-pentylcannabinol]
- Potency at CB2 receptor relative to CBN [11]: vastly increase its potency
- Potency at CB1 receptor relative to CBN [12]: vastly increase its potency

Compound: CCCCCc1cc(OCCC)c2c(c1)OC(C)(C)c1ccc(C)cc1-2 [oprCBN, o-propylcannabinol]
- Potency at CB2 receptor relative to CBN [11]: vastly increase its potency
- Potency at CB1 receptor relative to CBN [12]: vastly increase its potency

Compound: CCCCCc1cc(O)c2c(c1)OC(C)(C)C1CCC(C)C=C21 (centres unmarked) [Δ10-Tetrahydrocannabinol, Δ10-tetrahydrocannabinol]
- Interaction with CB1R [4]: interact with CB1R
